According to article PMC11624193, “Coupling cellular drug-target engagement to downstream pharmacology with CeTEAM” (Nature Communications, 2024):
Numbering of substitutions follows the chain as printed.

What was measured:
NUDT15 [1] = biological target: T1, NUDT15 (Homo sapiens, UniProt Q9NV35, R139C); assay: DSF thermal shift of purified protein with […] compound; HA-R139C stabilization in cells; assay type: binding; conditions: read-out: DSF thermal shift of purified protein with 50 μM compound; HA-R139C stabilizatio
T1 construct: full-length R139C
T1 sequence (Q9NV35 1-164 R139C): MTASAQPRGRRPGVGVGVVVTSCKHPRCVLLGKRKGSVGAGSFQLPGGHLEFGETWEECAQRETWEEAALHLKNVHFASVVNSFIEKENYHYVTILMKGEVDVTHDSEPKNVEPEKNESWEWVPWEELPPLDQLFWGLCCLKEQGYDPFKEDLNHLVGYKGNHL

NUDT15 [2] = biological target: T2, NUDT15 (Homo sapiens, UniProt Q9NV35); assay: […] Å co-crystal structure; also enzyme-coupled malachite green inhibition assay and DSF; assay type: biochemical
T2 construct: full-length wild-type
T2 sequence (Q9NV35 1-164): T1 sequence (Q9NV35 1-164 R139C) with C139R

NUDT15 [3] = biological target: T2, NUDT15; assay: enzyme-coupled malachite green assay with dGTP as substrate; assay type: biochemical

ΔTm at 50 µM (NUDT15 [1]) | IC50 (NUDT15 [2]) | IC50 (NUDT15 [3]) | SMILES
7 °C | 383 nM | – | Nc1nc(S)c2ncn(C3CCCCC3)c2n1 [NSC56456, 2-amino-9-cyclohexyl-3H-purine-6-thione]
– | – | 375 nM | CC(C)(c1ccccc1)n1cnc2c(=S)nc(N)[nH]c21 [TH8234, 2-amino-9-(2-phenylpropan-2-yl)-3H-purine-6(9H)-thione]
